Experimental data taken from patent US11492379B2 (priority 2020, dated 2022).

System: icSARS-CoV-2-GFP
Assay type: cell-based, SARS-CoV-2

In the case of trypsin, the syncytium formation is reported as “did not trigger syncytium formation” and the “virus titers relative to controls” value is reported as “slightly lower virus titers than controls”.
